Results as given in patent US20110190192A1, “METHODS FOR TREATING ERECTILE DYSFUNCTION IN PATIENTS WITH INSULIN-DEPENDENT DIABETES” (Cebix Inc., priority 2009, published 2011).

Assays:
[1] = C-peptide concentrations in plasma (time-resolved fluoroimmunoassay); details: dose ranges of the study; very small patient number
Method: Blood samples for determination of C-peptide in plasma were drawn at the S/B visit, visit 2, and at end of study (visit 4).
The sampling of C-peptide in plasma at visits 2 and 4 coincided with the clinical visit and the time between the most recent administration of the trial drug and sampling varied between patients.
C-peptide plasma levels were measured at baseline, and after 3 and 6 months of treatment. Analysis was performed by the Department of Clinical Chemistry Karolinska University Hospital, Solna using a time-resolved fluoroimmunoassay (AutoDelfia, Wallac Oy, Turku, Finland).
C-peptide plasma levels were also measured pre-dosing in the morning in 22 randomly selected patients at the Karolinska Hospital after 4.5 months of study treatment (visit 3).

[2] = test system: type 1 diabetes patients with peripheral neuropathy; details: in vivo
Source text: (§1) The safety measurements comprised collection of AEs, spontaneously reported by the patient or recorded by the investigator at each clinical visit.
(§2) An AE was classified as “unexpected event” (i.e., if not specifically listed in the Investigator's Brochure) in terms of nature, severity, or frequency. All AEs, including intercurrent illnesses and increased severity or frequency of sign/symptoms of a concomitant disease was reported and documented as described below. AEs were documented on an “Adverse Event/Serious Adverse Event” page of the CRF and in the patient's medical records. Any AE occurring at any time after the end of the study, considered to be caused by the study medication—and therefore a possible adverse drug reaction—was reported to the sponsor.
(§3) Hypoglycemic events are common events in insulin-treated patients. For practical reasons only severe hypoglycemic events, i.e., if the patient required assistance from another person in order to regain normoglycaemia, were reported as an AE.
(§4) The period of observation for AEs extended from the time the patient started on trial medication until end of the study. AEs were divided into the categories “serious” and “non-serious”. This determined the procedure used to report/document the AE.
(§5) Descriptive statistics were used for safety variables. […] The safety analysis set included all patients who obtained at least one dose of the investigational drug. AEs were coded according to the MedDRA dictionary. The frequencies of AEs are tabulated by body system and included/preferred term.

[3] = test system: type 1 diabetes patients with peripheral neuropathy; test: ECG and vital signs; format: in vivo, human; details: for BPd (diastolic blood pressure) change, mean ± SD / BPd (diastolic blood pressure) change, median / BPs (systolic blood pressure) change, mean ± SD / BPs (systolic blood pressure) change, median / Heart rate change, mean ± SD / Heart rate change, median / QTc-interval Bazett change, mean ± SD / QTc-interval Bazett change, median / QTc-interval Fredericia change, mean ± SD / QTc-interval Fredericia change, median: baseline to 6 months (visit 4), PP data set
Method: ECG was performed at baseline and at end of study, i.e., visit 4 (at 6 months±2 weeks from the S/B visit).

[4] = test system: type 1 diabetes patients with peripheral neuropathy; test: Adverse events
Source text: as §1, §2, §3, §4, §5

[5] = high-dose C-peptide, treatment emergent, any severity, PP data set
[6] = low-dose C-peptide, treatment emergent, any severity, PP data set

CC(C)C[C@H](NC(=O)[C@H](C)NC(=O)[C@H](CC(C)C)NC(=O)[C@@H]1CCCN1C(=O)[C@H](CCC(N)=O)NC(=O)[C@H](CC(C)C)NC(=O)[C@H](CO)NC(=O)CNC(=O)[C@H](C)NC(=O)CNC(=O)[C@@H]1CCCN1C(=O)CNC(=O)CNC(=O)CNC(=O)[C@H](CC(C)C)NC(=O)[C@H](CCC(=O)O)NC(=O)[C@@H](NC(=O)[C@H](CCC(N)=O)NC(=O)CNC(=O)[C@@H](NC(=O)[C@H](CCC(N)=O)NC(=O)[C@H](CC(C)C)NC(=O)[C@H](CC(=O)O)NC(=O)[C@H](CCC(=O)O)NC(=O)[C@H](C)NC(=O)[C@@H](N)CCC(=O)O)C(C)C)C(C)C)C(=O)N[C@@H](CCC(=O)O)C(=O)NCC(=O)N[C@@H](CO)C(=O)N[C@@H](CC(C)C)C(=O)N[C@@H](CCC(N)=O)C(=O)O [C-peptide, Recombinant human C-peptide]
Accumulation following repeated dosing [1]: no significant accumulation | Acute HIV infection, AE intensity (number of AE incidences) [2]: M (1) | Herpes zoster, AE intensity (number of AE incidences) [2]: M (1) | Decrease in systolic blood pressure, high-dose vs low-dose group ([3]; 6 months, p<0.004, not statistically different from placebo): significantly greater decrease | BPd (diastolic blood pressure) change, mean ± SD ([3]; high-dose C-peptide): −2.6 ± 8.0 mmHg | BPd (diastolic blood pressure) change, median ([3]; high-dose C-peptide): −1.0 mmHg | BPs (systolic blood pressure) change, mean ± SD ([3]; high-dose C-peptide): −8.8 ± 10.0 mmHg | BPs (systolic blood pressure) change, median ([3]; high-dose C-peptide): −8.0 mmHg | Heart rate change, mean ± SD ([3]; high-dose C-peptide): −3.2 ± 10.0 bpm | Heart rate change, median ([3]; high-dose C-peptide): −4.0 bpm | QTc-interval Bazett change, mean ± SD ([3]; high-dose C-peptide): -4.5 ± 20.3 ms | QTc-interval Bazett change, median ([3]; high-dose C-peptide): 0.0 ms | QTc-interval Fredericia change, mean ± SD ([3]; high-dose C-peptide): -0.5 ± 16.2 ms | QTc-interval Fredericia change, median ([3]; high-dose C-peptide): 0.0 ms | BPd (diastolic blood pressure) change, mean ± SD ([3]; low-dose C-peptide): −2.7 ± 8.2 mmHg | BPd (diastolic blood pressure) change, median ([3]; low-dose C-peptide): −1.0 mmHg | BPs (systolic blood pressure) change, mean ± SD ([3]; low-dose C-peptide): −2.1 ± 12.8 mmHg | BPs (systolic blood pressure) change, median ([3]; low-dose C-peptide): −1.0 mmHg | Heart rate change, mean ± SD ([3]; low-dose C-peptide): −0.9 ± 8.2 bpm | Heart rate change, median ([3]; low-dose C-peptide): −2.0 bpm | QTc-interval Bazett change, mean ± SD ([3]; low-dose C-peptide): -0.1 ± 17.5 ms | QTc-interval Bazett change, median ([3]; low-dose C-peptide): 0.0 ms | QTc-interval Fredericia change, mean ± SD ([3]; low-dose C-peptide): 0.9 ± 14.1 ms | QTc-interval Fredericia change, median ([3]; low-dose C-peptide): 1.3 ms | Adverse drug reactions or significant changes in safety variables (blood chemistries and vital signs) ([4]; 500-1,500 nmoL/24 h, 6 months): no adverse drug reactions or significant changes in safety variables | Local reactions ([4]; S.C. injection, 6 months): No local reactions were reported | Deaths during the study ([4]; all groups): No deaths | Serious adverse events (SAEs) ([4]; high-dose C-peptide (1,500 nmoL/24 h)): Two | Relationship of the SAEs to the trial medication ([4]; high-dose C-peptide, investigators' assessment): unlikely/not related | Dizziness (SOC Injury poisoning, procedural complications), number of AEs [4, 5]: 1 | Hyperaesthesia, number of AEs [4, 5]: 1 | Hyperaesthesia, number of AEs probably/possibly related to study drug [4, 5]: (1) | Hypoglycemia, number of AEs probably/possibly related to study drug [4, 5]: (1) | Injection site burning, number of AEs [4, 5]: 1 | Injection site burning, number of AEs probably/possibly related to study drug [4, 5]: (1) | Pain in extremity (SOC Musculoskeletal and connective tissue disorder), number of AEs [4, 5]: 4 | Paraesthesia, number of AEs probably/possibly related to study drug [4, 5]: (2) | Skin infection (SOC Infections and infestations), number of AEs [4, 5]: 1 | Skin infection (SOC Skin and subcutaneous tissue disorders), number of AEs [4, 5]: 2 | Tendosynovitis stenosans, number of AEs [4, 5]: 1 | Total number of AEs [4, 5]: 156 | Total number of AEs probably/possibly related to study drug [4, 5]: (5) | AEs of moderate intensity ([4]; high-dose group): 43 AEs | AEs of severe intensity ([4]; high-dose group): 9 AEs | AEs reported as possible/probable related to the study drug ([4]; high-dose group): 5 AEs | Number of AEs reported ([4]; high-dose group, n=52, ITT): 154 AEs | Patients with AEs ([4]; high-dose group, out of 52): 44 patients | Cardiac arrhythmia (SVES), number of AEs [4, 6]: 1 | Dizziness (SOC Nervous system disorders), number of AEs [4, 6]: 2 | Elevated serum creatinine, number of AEs [4, 6]: 1 | Hepatic enzyme increase, number of AEs probably/possibly related to study drug [4, 6]: (1) | Hyperglycemia, number of AEs probably/possibly related to study drug [4, 6]: (1) | Hyperthermeasthesia, number of AEs [4, 6]: 2 | Hyperthermeasthesia, number of AEs probably/possibly related to study drug [4, 6]: (2) | Hypoglycemia, number of AEs probably/possibly related to study drug [4, 6]: (1) | Insulin sensitivity increased, number of AEs [4, 6]: 1 | Insulin sensitivity increased, number of AEs probably/possibly related to study drug [4, 6]: (1) | Musculoskeletal chest pain, number of AEs [4, 6]: 1 | Pain in extremity (SOC Musculoskeletal and connective tissue disorder), number of AEs [4, 6]: 3 | Pain in extremity (SOC Musculoskeletal and connective tissue disorder), number of AEs probably/possibly related to study drug [4, 6]: (1) | Paraesthesia, number of AEs probably/possibly related to study drug [4, 6]: (1) | Skin infection (SOC Infections and infestations), number of AEs [4, 6]: 5 | Tachycardia (stress related), number of AEs [4, 6]: 1 | Total number of AEs [4, 6]: 173 | Total number of AEs probably/possibly related to study drug [4, 6]: (8) | AEs of moderate intensity ([4]; low-dose group): 51 AEs | AEs of severe intensity ([4]; low-dose group): 1 AEs | AEs reported as possible/probable related to the study drug ([4]; low-dose group): 8 AEs | Number of AEs reported ([4]; low-dose group, n=56, ITT): 173 AEs | Patients with AEs ([4]; low-dose group, out of 56): 48 patients
